How the values were obtained:
C. elegans [1] = details: 1mM, chronic exposure from Day 1 adulthood
Method: Worm lifespan tests were performed using about 100 animals per condition and scored manually every other day. Trigonelline treatment and experimental measurements were started at Day 1 of wild type N2 worm adulthood, in a regimen of chronic exposure till experiments termination.

C. elegans [2] = details: 1 mM
Method: C. elegans mobility test was performed using the Movement Tracker software (Mouchiroud, L. et al. Curr Protoc Neurosci 77, 8.37.1-8.37.21 (2016)). The experiments were repeated at least twice. Trigonelline treatment and experimental measurements were started at Day 1 of wild type N2 worm adulthood, in a regimen of chronic exposure till experiments termination.

C. elegans [3] = details: 1 mM, day 8 and day 11 old worms
Description: 45 to 60 worms per condition were manually scored for mobility after poking. Worms that were unable to respond to any repeated stimulation were scored as dead. […] Trigonelline treatment and experimental measurements were started at Day 1 of wild type N2 worm adulthood, in a regimen of chronic exposure til experiments termination.

[4] = test system: Human Skeletal Muscle Myotubes (HSMM); details: 6h
Method: Human primary myoblasts from two different donors were seeded in 6 well plates at a density of 200′000 cells per well in skeletal muscle growth medium (SKM-M, AMSbio). After one day, the differentiation was induced by a medium change for 4 days using differentiation culture medium
(Gibco No. 31330-028). Cells were treated with isotopically labelled trigonelline (^13C carbonyl; 3^2H on methyl) for 6h.
Cell extracts were separated on a Vanquish UHPLC +focused LC system (Thermo Scientific) with a hydrophilic liquid chromatography (HILIC) iHILIC-Fusion(P) column (Hilicon) carrying the dimensions 150 x 2.1 mm, 5 pm and a guard column (iHILIC-fusion(P), Hilicon) in front. The separation of metabolites was achieved by applying a linear solvent gradient in normal phase at 0.25 mL/min flow rate and 35° C. of temperature. As mobile phase, solvent A was water with 10 mM ammonium acetate and 0.04% (v/v) ammonium hydroxide, pH ˜9.3, and solvent B was acetonitrile.
The eluting metabolites were analyzed with an Orbitrap Fusion Lumos mass spectrometer (Thermo Scientific) with a heated electrospray ionization (H-ESI) source in positive and negative mode at a resolution of 60,000 at m/z of 200. Instrument control and data analysis were conducted using Xcalibur (Thermo Scientific).

[5] = test system: RW1596 (myo-3p::GFP) worms; details: 1mM trigonelline chloride, 11 day old worms
Method: RW1596 (myo-3p::GFP) worms were collected at Day 1 (young adults) and at Day 11 (aged animals) for muscle integrity assessment. Worms were immobilized with tetramisole and analyzed by confocal microscopy, to assess the muscle fibers morphology shown by GFP fluorescence imaging. Trigonelline treatment with 1mM trigonelline chloride and experimental measurements were started at Day 1 of wild type N2 worm adulthood, in a regimen of chronic exposure till experiments termination.

C. elegans [6] = details: 1mM trigonelline chloride, day 8 old worms
Method: Absolute quantification of the mtDNA copy number in wild type N2 worms was performed by real-time PCR. Relative values for nduo-1, and act-1 were compared within each sample to generate a ratio representing the relative level of mitochondrial DNA per nuclear genome. The average of at least two technical repeats was used for each biological data point. Each experiment was performed on at least ten independent biological samples (individual worms). Trigonelline treatment with 1mM trigonelline chloride and experimental measurements were started at Day 1 of wild type N2 worm adulthood, in a regimen of chronic exposure till experiments termination.

Human primary myoblasts = experiment: NAD+ colorimetric quantification in differentiated human primary myoblasts; assay type: cell-based; details: 16h, different doses
Method: After one day, the differentiation is induced by a medium change for 4 days. Cells were treated with synthetic trigonelline monohydrate (FIG. 4A) or with Fenugreek seed extract enriched in trigonelline containing 40.45% trigonelline (FIG. 4B) for 16h at difference doses. NAD+was measured using colorimetric NAD+quantification assay (Biovision NAD+/NADH Quantitation Colorimetric Kit #k337-100).

C57BL/6JRj male mice = experiment: Liver NAD+ after oral gavage in mice; assay type: in vivo; details: equimolar of 300mg/kg trigonelline, 120 minutes
Method: 10 weeks C57BL/6JRj male mice received trigonelline (sigma #T5509) or fenugreek seed extract enriched in trigonelline (40.45% trigonelline) by oral gavage (equimolar of 300mg/kg trigonelline, n=8/group). After 120 minutes treatment, the liver was harvested and flash frozen in liquid nitrogen. NAD+was measured in liver using an enzymatic method adapted from Dall, M., et al., Mol Cell Endocrinol, 2018. 473: p. 245-256.

In the case of C[n+]1cccc(C(=O)O)c1 [trigonelline chloride], the increase in lifespan (C. elegans [1]) is reported as 21%, the “distance travelled during spontaneous mobility assay vs control” value (C. elegans [2]; advanced aging phase) is reported as “significantly increased” and the “mean speed during spontaneous mobility assay vs control” value (C. elegans [2]; from day 1 adulthood) is reported as “increased the mean speed”. The “stimulated mobility score (worms responsive to a physical stimulus)” value (C. elegans [3]) was “more responsive to a physical stimulus than the control”.
With C[n+]1cccc(C(=O)[O-])c1 [trigonelline, 1-methylpyridin-1-ium-3-carboxylate] the “NAD+ relative concentration vs control (FIG. 2A)” value ([4]; HSMM from 2 donors, 500pm, LC-MS) was “enhancement”, the “myofibrillar structure (GFP-tagged myosin) vs age matched control” value [5] was “improved more organized myofibrillar structure” and the “mitochondrial expression relative to nuclear expression (mt/nDNA, nduo-1/act-1)” value (C. elegans [6]) was “higher than in the control group”.
In the case of [2H]C([2H])([2H])[n+]1cccc([13C](=O)[O-])c1 [labelled trigonelline, reference compound], the “relative abundance of labelled NAD+(M+1) (FIG. 2B)” value ([4]; labelled trigonelline 500pm, vs naturally occurring NAD+ in control) is reported as “increase”.
In the case of C[n+]1cccc(C(=O)O)c1.[OH-] [chemically synthesized trigonelline], the “NAD+ content compared to the control” value (Human primary myoblasts) is reported as “significant increase” and the “NAD+ content in the liver compared to the control” value (C57BL/6JRj male mice) is reported as “significant increase”.

— US20220265625A1, “COMPOSITIONS AND METHODS USING TRIGONELLINE AND MINERALS FOR PREVENTING OR TREATING CONDITIONS OR DISORDERS IN SKELETAL MUSCLE” (SOCIETE DES PRODUITS NESTLE S.A., priority 2019, published 2022)
